The record followed here is patent US20220098203A1 (priority 2018, published 2022).

The target of assay [1] is T1, MAT2A homodimer (Homo sapiens, UniProt P31153).
T1 construct: inferred from the Ni sepharose purification and imidazole elution; made in house; host or cells: SF9 insect cells, recombinant baculovirus (Bac to Bac, pFASTBAC1)
Kind of assay: MAT2A biochemical assay (liberated phosphate, PiColorLock Gold). To be noted: Table 5a; MAT2A biochemical assay; read-out: Enzyme Inhibition. Summed up:
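Baculovirus/Sf9-expressed, Ni-purified MAT2A homodimer preincubated with compound 60 min at 25 °C, then reacted 60 min at 25 °C with substrate mix of 500 μM ATP and 400 μM L-methionine, pH 7.0 (mix, not final levels). Phosphate released with SAM measured by PiColorLock Gold against phosphate standard curve.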

In assay [2] the test system is SAM in HCT116 MTAP-deleted cells. Kind of assay: Cellular assay of target engagement (SAM), LC-MS/MS. Type of assay: cell-based, human. To be noted: Homo sapiens, HCT-116, Table 5a, 72 h, read-out: Cell 72 h SAM Inhibition (MTAP −/−). In short, it runs like this: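 HCT116 cells with MTAP deleted were treated with compound for 72 h at 37°C/5% CO2. After quenching lysis in cold 80% methanol with 1 M acetic acid, SAM was quantified by LC-MS/MS against a d3-SAM internal standard.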

In assay [3] the test system is HCT116 MTAP-/-. Kind of assay: Inhibition of cellular proliferation (Cell Titer Glo), HCT116 MTAP-/-. The conditions noted are these: Homo sapiens, HCT-116, 96 h, Table 5a, 4 days, read-out: 4 Day Relative Growth Inhibition (MTAP −/−). Type of assay: cell-based, human. Summed up:
(§1)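 Isogenic HCT116 MTAP+/+ and MTAP−/− cells were plated, treated with MAT2A inhibitor after 24 h, and incubated 4 days at 37 °C. Proliferation was read by CellTiter-Glo ATP luminescence, blank-subtracted and normalized to 0.2% DMSO control.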

In assay [4] the test system is HCT116 MTAP+/+. Kind of assay: Inhibition of cellular proliferation (Cell Titer Glo), HCT116 MTAP+/+. The class given is cell-based. The conditions noted are these: Homo sapiens, HCT-116, 96 h, Table 5a, 4 days, read-out: 4 Day Relative Growth Inhibition (MTAP +/+). Summed up: as §1

T1 sequence (P31153 whole entry): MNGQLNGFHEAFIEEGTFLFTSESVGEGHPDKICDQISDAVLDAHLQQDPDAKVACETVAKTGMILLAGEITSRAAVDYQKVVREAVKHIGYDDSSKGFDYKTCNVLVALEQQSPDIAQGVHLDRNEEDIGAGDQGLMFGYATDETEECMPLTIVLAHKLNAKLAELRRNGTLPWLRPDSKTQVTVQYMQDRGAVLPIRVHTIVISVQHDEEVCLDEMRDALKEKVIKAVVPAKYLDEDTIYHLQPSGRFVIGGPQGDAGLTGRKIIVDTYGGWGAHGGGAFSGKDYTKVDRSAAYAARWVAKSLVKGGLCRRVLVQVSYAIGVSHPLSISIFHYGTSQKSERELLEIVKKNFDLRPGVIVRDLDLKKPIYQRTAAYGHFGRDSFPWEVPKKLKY

On to `Cn1cc2cc(N3Cc4ccc(OCC(F)F)nc4N(c4ccc5ocnc5c4)C3=O)ccc2n1` [Example 283, 1-(benzo[d]oxazol-5-yl)-7-(2,2-difluoroethoxy)-3-(2-methyl-2H-indazol-5-yl)-3,4-dihydropyrido[2,3-d]pyrimidin-2(1H)-one], for which the IC50 in assay [1] is less than 100 nM; in assay [2] it was 100 to 1000 nM; in assay [3], 100 to 1000 nM; in assay [4], 100 to 1000 nM.

In the case of `Cn1cc2cc(N3Cc4cc(F)c(OCC(F)F)cc4N(c4ccc(OC(F)F)cc4)C3=O)ccc2n1` [Example 285, 7-(2,2-difluoroethoxy)-1-(4-(difluoromethoxy)phenyl)-6-fluoro-3-(2-methyl-2H-indazol-5-yl)-3,4-dihydroquinazolin-2(1H)-one], the IC50 in assay [1] was less than 100 nM; in assay [2] it was 100 to 1000 nM; in assay [3], 100 to 1000 nM; in assay [4], more than 1000 nM.

`CCOc1ccc2c(c1)N(c1ccc(OC(F)F)cc1)C(=O)N(c1ccc3nn(C)cc3c1)C2` [Example 287, 1-[4-(difluoromethoxy)phenyl]-7-ethoxy-3-(2-methyl-2H-indazol-5-yl)-1,2,3,4-tetrahydroquinazolin-2-one]: the IC50 in assay [1] was less than 100 nM; in assay [2], 100 to 1000 nM; in assay [3], 100 to 1000 nM; in assay [4], 100 to 1000 nM.

Take `Cn1cc2cc(N3Cc4ccc(NCC(F)(F)F)cc4N(c4ccc(OC(F)F)cc4)C3=O)ccc2n1` [Example 288]: the IC50 was less than 100 nM in assay [1], 100 to 1000 nM in assay [2], 100 to 1000 nM in assay [3] and more than 1000 nM in assay [4].

With `CCOc1cnc2c(c1)N(c1ccc(OC(F)F)cc1)C(=O)N(c1ccc(OC)cc1)C2` [Example 289, 1-(4-(difluoromethoxy)phenyl)-7-ethoxy-3-(4-methoxyphenyl)-3,4-dihydropyrido[3,2-d]pyrimidin-2(1H)-one], the IC50 was 100 to 1000 nM in assay [1], more than 1000 nM in assay [2], more than 1000 nM in assay [3] and more than 1000 nM in assay [4].

Take `CCOc1cnc2c(c1)N(c1ccc(OC(F)F)cc1)C(=O)N(c1ccc3nn(C)cc3c1)C2` [Example 290]: the IC50 in assay [1] was less than 100 nM; in assay [2], 100 to 1000 nM; in assay [3], 100 to 1000 nM; in assay [4] it was more than 1000 nM.

Consider `CCOc1cnc2c(c1)N(c1ccc(Cl)cc1)C(=O)N(c1ccc3nn(C)cc3c1)C2` [Example 291], for which the IC50 was 100 to 1000 nM in assay [1], 100 to 1000 nM in assay [2], more than 1000 nM in assay [3] and more than 1000 nM in assay [4].

For `CCCc1ccc2c(n1)N(c1ccc(OC)cc1)C(=O)N(c1ccc3nn(C)cc3c1)C2` [Example 294, 1-(4-methoxyphenyl)-3-(2-methyl-2H-indazol-5-yl)-7-propyl-3,4-dihydropyrido[2,3-d]pyrimidin-2(1H)-one], the IC50 is less than 100 nM in assay [1], less than 100 nM in assay [2], less than 100 nM in assay [3] and more than 1000 nM in assay [4].

In the case of `Cn1cc2cc(N3Cc4ccc(OCC(F)F)nc4N(c4ccc(O)cc4)C3=O)ccc2n1` [Example 295, 7-(2,2-difluoroethoxy)-1-(4-hydroxyphenyl)-3-(2-methyl-2H-indazol-5-yl)-3,4-dihydropyrido[2,3-d]pyrimidin-2(1H)-one], the IC50 is less than 100 nM in assay [1], less than 100 nM in assay [2], 100 to 1000 nM in assay [3] and more than 1000 nM in assay [4].

On to `[2H]C([2H])([2H])Oc1ccc(N2C(=O)N(c3ccc4nc(C)n(C)c4c3)Cc3ccc(OCC(F)F)nc32)cc1` [Example 401, 7-(2,2-difluoroethoxy)-3-(1,2-dimethyl-1H-benzo[d]imidazol-6-yl)-1-(4-(methoxy-d3)phenyl)-3,4-dihydropyrido[2,3-d]pyrimidin-2(1H)-one], for which the IC50 is less than 100 nM in assay [1], less than 100 nM in assay [2], less than 100 nM in assay [3] and more than 1000 nM in assay [4].
